Source: patent US5753673A, “Quinolinecarboxylic acid derivatives” (Taisho Pharmaceutical Co., Ltd., priority 1994, dated 1998)
Structures can show the parent of a compound that is named as a salt. Where two headings read alike, the source gives them in different places.

Assays:
[1] = target: T1, serotonin 4 receptor (5-HT4) (Cavia porcellus, UniProt O70528); assay: Stimulating activity on serotonin 4 receptor (twitch response in guinea pig ileum); format: cell-based
T1 construct: from tissue; host or cells: longitudinal muscle strips of guinea pig ileum (Harley guinea pigs)
T1 sequence (O70528 whole entry): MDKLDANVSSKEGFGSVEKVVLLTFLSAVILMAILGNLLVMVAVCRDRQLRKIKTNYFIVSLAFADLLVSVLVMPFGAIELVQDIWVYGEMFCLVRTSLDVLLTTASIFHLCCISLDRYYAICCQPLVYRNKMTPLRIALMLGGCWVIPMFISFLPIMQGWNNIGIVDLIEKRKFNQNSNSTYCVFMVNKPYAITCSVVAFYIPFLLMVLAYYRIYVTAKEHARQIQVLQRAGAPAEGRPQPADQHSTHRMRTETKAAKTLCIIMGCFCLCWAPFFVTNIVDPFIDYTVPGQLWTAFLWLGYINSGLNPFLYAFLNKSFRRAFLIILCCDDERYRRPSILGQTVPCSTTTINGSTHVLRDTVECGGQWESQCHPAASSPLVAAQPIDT
Experimental: Stimulating activity on serotonin 4 receptor
From Harley guinea pigs weighing 250 to 400 g, a section of ileum 10 to 20 cm proximal to the ileocecal junction was removed. Longitudinal muscle strips obtained from the ileum were used for this assay. The preparations were suspended in Krebs' solution at 32 to 34° C., bubbled continuously with 95% O2 and 5% CO2, and subjected to initial tension of about 0.8 g. Responses were recorded isometrically. Twitch responses were evoked by electrical stimulation (0.2 Hz, 1 msec pulse duration). The preparations were stimulated at supramaximal voltage for 2 to 3 hours, and were then allowed to equilibrate for about 1 hour at submaximal voltage. […] The preparations were left for at least 45 minutes before cumulative addition of each agonist.
The quinolinecarboxylic acid derivatives of the present invention were employed as sample compounds. For comparison, the following compounds were employed. These compounds were diluted by dissolving them in distilled water or in DMSO.
The data obtained was analyzed by RS1 (BBN Software Product Co.).

5-HT4 receptor = target: T2, 5-HT4 receptor (Cavia porcellus, UniProt O70528); assay: Inhibition of 5-HT4 receptor-binding ([^3 H]GR113808 binding in guinea pig ileum)
T2 construct: The longitudinal muscle strip from guinea pig was homogenized; from tissue; host or cells: membranes of guinea pig ileum longitudinal muscle strip
T2 sequence (O70528 whole entry): as above
Experimental: Effect on inhibition of 5-HT4 receptor-binding
The effect on inhibition of 5-HT4 receptor-binding of the quinolinecarboxylic acid derivatives of the present invention was examined according to the method described in GROSSMAN et al., Br. J. Pharmacol., 109, 618 (1993).
The longitudinal muscle strip from guinea pig was homogenized in 0.32M sucrose with a Teflon-glass homogenizer. After centrifugation at 900 G for 10 minutes, the upper fraction of lipids and precipitates was discarded and the supernatant was centrifuged at 100,000 G (48,000 rpm) for an hour. The pellet was resuspended in 50 mM HEPES buffer. After incubation at 37° C. for 30 minutes, the suspension was centrifuged at 48,000 rpm for 20 minutes. The pellet was suspended in HEPES buffer supplemented with 10^-6 M pargyline and 0.1% ascorbic acid. The suspension was used for the binding assay.
Non-specific binding was defined as that taken in the presence of 3×10^-5 M 5-HT. B/F separation was performed through GF/B filter treated with 0.1% polyethyleneimine, using a cell harvester. Washing was performed once.

Dopamine D2 receptor = target: T3, Dopamine D2 receptor (Rattus norvegicus, UniProt P61169); assay: Selectivity for receptors: dopamine D2 receptor, inhibition of [^3 H] raclopride binding to rat striatal membrane; settings: [^3 H] raclopride 1 nM, symbol, no activity in 10 μM, read-out: Dopamine D2 receptor antagonizing action (IC50)
T3 construct: The rat striatum was homogenized in 50 mM Tris hydrochloride buffer; from tissue; host or cells: rat striatal membranes
T3 sequence (P61169 whole entry): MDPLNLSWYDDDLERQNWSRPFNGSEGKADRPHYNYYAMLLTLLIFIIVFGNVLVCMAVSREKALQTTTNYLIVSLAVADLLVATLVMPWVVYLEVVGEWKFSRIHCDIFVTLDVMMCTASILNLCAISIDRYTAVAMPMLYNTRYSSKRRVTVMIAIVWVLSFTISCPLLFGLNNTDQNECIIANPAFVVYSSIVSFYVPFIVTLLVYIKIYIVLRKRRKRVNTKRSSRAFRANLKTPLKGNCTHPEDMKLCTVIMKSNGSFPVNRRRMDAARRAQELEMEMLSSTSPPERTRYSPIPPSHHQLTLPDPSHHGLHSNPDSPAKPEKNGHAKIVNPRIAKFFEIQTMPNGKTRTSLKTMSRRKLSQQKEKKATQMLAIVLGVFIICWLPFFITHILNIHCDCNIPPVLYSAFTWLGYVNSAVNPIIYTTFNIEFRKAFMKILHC
Experimental: (§1) The selectivity for receptors of the quinolinecarboxylic acid derivatives of the present invention was examined by the following method.
The affinity to dopamine 2 (D2) receptor was examined according to the method described in MALMBERG, A. et al., Mol Pharmacol., 43, 749-754 (1993).
The affinity for D2 receptor was studied in terms of the inhibition of [^3 H] raclopride (Daiichi Kagaku Yakuhin Co.) binding to rat striatal membrane. The rat striatum was homogenized in 50 mM Tris hydrochloride buffer (pH 7.4) followed by centrifugation at 48,000 G. The pellet was washed once with Tris hydrochloride buffer. Then the pellet was suspended in 50 mM Tris hydrochloride buffer (containing 120 mM NaCl, 5 mM KCl, 2 mM CaCl2, 1 mM MgCl2, pH 7.4) and provided for use as the membrane preparation. The membrane preparation (0.5 mg protein/ml) was reacted with 1 nM [3H] raclopride at 25° C. for 60 minutes. After the reaction, the membrane was caught by a harvester. Non-specific binding was defined as that taken in the presence of 10 μM haloperidol.

5-HT3 receptor = target: T4, 5-HT3 receptor (Rattus norvegicus, UniProt P35563); assay: Selectivity for receptors: 5-HT3 receptor, inhibition of [^3 H]GR65630 binding to rat cerebral cortex membrane; settings: [^3 H]GR65630 0.2 nM, read-out: 5-HT3 receptor antagonizing action (IC50)
T4 construct: The rat cerebral cortex was homogenized in 50 mM Tris hydrochloride buffer; from tissue; host or cells: rat cerebral cortex membranes
T4 sequence (P35563 24-483): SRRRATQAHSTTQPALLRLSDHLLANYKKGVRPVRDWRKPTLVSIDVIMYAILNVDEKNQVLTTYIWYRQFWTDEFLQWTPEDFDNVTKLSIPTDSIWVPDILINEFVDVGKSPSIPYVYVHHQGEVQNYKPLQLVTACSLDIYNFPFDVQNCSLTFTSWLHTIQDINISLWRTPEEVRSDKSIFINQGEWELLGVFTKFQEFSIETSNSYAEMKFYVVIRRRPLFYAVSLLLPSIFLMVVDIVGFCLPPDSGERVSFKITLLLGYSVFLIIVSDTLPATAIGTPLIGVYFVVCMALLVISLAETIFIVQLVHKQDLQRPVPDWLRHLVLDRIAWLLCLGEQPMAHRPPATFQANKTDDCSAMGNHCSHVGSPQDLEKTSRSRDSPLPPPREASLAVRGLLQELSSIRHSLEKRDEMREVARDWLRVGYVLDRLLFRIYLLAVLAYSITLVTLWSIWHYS
Experimental: as §1
The affinity for serotonin 3 receptor was examined by the method described in […], G. J. et al., Nature (London), 330, 746-748 (1987).
The affinity to serotonin 3 (5-HT3) was examined in terms of inhibition of [^3 H]GR65630 binding (Daiichi Kagaku Yakuhin Co.) binding to rat cerebral cortex membrane. The rat cerebral cortex was homogenized in 50 mM Tris hydrochloride buffer (pH 7.4) followed by centrifugation at 48,000 G. The precipitates were washed once with Tris hydrochloride buffer. Then the precipitates were suspended in 50 mM Tris hydrochloride buffer and provided for use as the membrane preparation. The membrane preparation was reacted with 0.2 nM [^3 H]GR65630 at 37° C. for 30 minutes. After the reaction, the membrane was caught by a harvester. Non-specific binding was defined as the binding taken in the presence of 1 μM zacopride.

5-HT1A receptor = target: T5, 5-HT1A receptor (Rattus norvegicus, UniProt P19327); assay: Selectivity for receptors: 5-HT1A receptor, inhibition of [^3 H] 8-OH-DPAT binding to rat cerebral cortex membrane; settings: [^3 H] 8-OH-DPAT 1 nM, rat cerebral cortex membrane; symbol, no activity in 10 μM; read-out: 5-HT1A receptor antagonizing action (IC50)
T5 construct: The rat cerebral cortex was homogenized in 50 mM Tris hydrochloride buffer; from tissue; host or cells: rat cerebral cortex membranes
T5 sequence (P19327 1-422): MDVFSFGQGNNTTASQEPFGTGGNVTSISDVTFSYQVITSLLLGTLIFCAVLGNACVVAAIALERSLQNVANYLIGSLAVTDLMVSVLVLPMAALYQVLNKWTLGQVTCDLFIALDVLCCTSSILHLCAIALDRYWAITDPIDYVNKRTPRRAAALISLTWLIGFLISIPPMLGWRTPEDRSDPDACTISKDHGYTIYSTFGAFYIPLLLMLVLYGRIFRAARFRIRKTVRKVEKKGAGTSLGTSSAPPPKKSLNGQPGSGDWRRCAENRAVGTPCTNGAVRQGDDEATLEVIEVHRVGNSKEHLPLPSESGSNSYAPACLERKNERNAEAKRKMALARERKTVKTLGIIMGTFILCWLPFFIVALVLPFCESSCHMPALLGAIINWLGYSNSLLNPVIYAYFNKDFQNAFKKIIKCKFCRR
Experimental: as §1
The affinity to serotonin 1A (5-HT1A) receptor was examined by the method described in […], J. R. et al., Biochem. Pharmacol., 12, 1943-1949 (1986).
The affinity to serotonin 1A (5-HT1A) was examined in terms of inhibition of [^3 H] 8-OH-DPAT (Daiichi Kagaku Yakuhin Co.) binding to rat cerebral cortex membrane. The rat cerebral cortex was homogenized in 50 mM Tris hydrochloride buffer (pH 7.4) followed by centrifugation at 48,000 G.
The pellet was washed once with Tris hydrochloride buffer. Then the pellet was suspended in 50 mM Tris hydrochloride buffer (supplemented with 0.01 mM pargyline and 0.1% ascorbic acid, pH 7.7) and provided for use as the membrane preparation. The membrane specimen was reacted with 1 nM [^3 H] 8-OH-DPAT at 37° C. for 15 minutes. After the reaction, the membrane was caught by a harvester. Non-specific binding was defined as that taken in the presence of 10 μM 5-HT.

[2] = twitch response in guinea pig ileum, maximum contraction of sample compound = 100%, read-out: ED50 (concentration enhancing the twitch response by 50%)

SMILES | EC50 [1] [nM] | IC50 (5-HT4 receptor) [nM] | IC50 (Dopamine D2 receptor) [nM] | IC50 (5-HT3 receptor) [nM] | IC50 (5-HT1A receptor) [nM] | EC50 [1, 2] [nM]
CC(C)n1c(=O)c(C(=O)NC2CC3CCC(C2)N3CCCO)cc2ccccc21 (stereo not drawn) [Compound 5, Endo-N-(8-(3-hydroxypropyl)-8-azabicyclo[3.2.1]oct-3-yl)-1-isopropyl-2-oxo-1,2-dihydro-3-quinolinecarboxamide] | 32 | 42.2 ± 6.29 | > 10000 | 977 | > 10000 | 
COCCN1[C@@H]2CC[C@H]1C[C@@H](NC(=O)c1cc3ccccc3n(C(C)C)c1=O)C2 [Compound 10, endo-N-(8-(2-methoxyethyl)-8-azabicyclo[3.2.1]oct-3-yl)-1-isopropyl-2-oxo-1,2-dihydro-3-quinolinecarboxamide hydrochloride] | 15 | 78.5 ± 14.6 | > 10000 | 811 | > 10000 | 
CCOCCN1C2CCC1CC(NC(=O)c1cc3ccccc3n(C(C)C)c1=O)C2 (stereo not drawn) [Compound 11, Endo-N-(8-(2-ethoxyethyl)-8-azabicyclo[3.2.1]oct-3-yl)-1-isopropyl-2-oxo-1,2-dihydro-3-quinolinecarboxamide] | 18.7 | 68.7 ± 7.32 | > 10000 | 423 | > 10000 | 
CC(C)n1c(=O)c(C(=O)N[C@H]2C[C@H]3CC[C@@H](C2)N3CCN2CCOCC2)cc2ccccc21 [Compound 20, endo-N-(8-(2-morpholinoethyl)-8-azabicyclo[3.2.1]oct-3-yl)-1-isopropyl-2-oxo-1,2-dihydro-3-quinolinecarboxamide] | 25.5 | 78.1 ± 14.5 | > 10000 | 509 | > 10000 | 
CC(C)n1c(=O)c(C(=O)O[C@H]2C[C@H]3CC[C@@H](C2)N3CCOc2ccccc2)cc2ccccc21 [Compound 49, Endo-8-(2-phenoxyethyl)-8-azabicyclo[3.2.1]oct-3-yl 1-isopropyl-2-oxo-1,2-dihydro-3-quinolinecarboxylate hydrochloride] | 39 |  |  |  |  | 
CCOC(=O)CCCN1[C@@H]2CC[C@H]1C[C@@H](OC(=O)c1cc3ccccc3n(C(C)C)c1=O)C2 [Compound 51, Endo-8-(3-(ethoxycarbonyl)propyl)-8-azabicyclo[3.2.1]oct-3-yl 1-isopropyl-2-oxo-1,2-dihydro-3-quinolinecarboxylate hydrochloride] | 23 |  |  |  |  | 
CC(=O)CN1[C@@H]2CC[C@H]1C[C@@H](OC(=O)c1cc3ccccc3n(C(C)C)c1=O)C2 [Compound 52, Endo-8-(2-oxopropyl)-8-azabicyclo[3.2.1]oct-3-yl 1-isopropyl-2-oxo-1,2-dihydro-3-quinolinecarboxylate hydrochloride] | 24.6 |  |  |  |  | 
CC(=O)CCCN1[C@@H]2CC[C@H]1C[C@@H](OC(=O)c1cc3ccccc3n(C(C)C)c1=O)C2 [Compound 53, Endo-8-(4-oxopentyl)-8-azabicyclo[3.2.1]oct-3-yl 1-isopropyl-2-oxo-1,2-dihydro-3-quinolinecarboxylate hydrochloride] | 26.4 |  |  |  |  | 
CC(C)n1c(=O)c(C(=O)O[C@H]2C[C@H]3CC[C@@H](C2)N3CCC#N)cc2ccccc21 [Compound 55, Endo-8-(2-cyanoethyl)-8-azabicyclo[3.2.1]oct-3-yl 1-isopropyl-2-oxo-1,2-dihydro-3-quinolinecarboxylate] | 27.3 |  |  |  |  | 
CC(C)n1c(=O)c(C(=O)O[C@H]2C[C@H]3CC[C@@H](C2)N3CC(N)=O)cc2ccccc21 [Compound 56, Endo-8-carbamoylmethyl-8-azabicyclo[3.2.1]oct-3-yl 1-isopropyl-2-oxo-1,2-dihydro-3-quinolinecarboxylate] | 31.4 |  |  |  |  | 
COc1ccc(N2[C@@H]3CC[C@H]2C[C@@H](OC(=O)c2cc4ccccc4n(C(C)C)c2=O)C3)cc1 [Compound 57, endo-8-(4-methoxyphenyl)-8-azabicyclo[3.2.1]oct-3-yl 1-isopropyl-2-oxo-1,2-dihydro-3-quinolinecarboxylate, reference compound] |  |  |  |  |  | > 3000
CC(C)n1c(=O)c(C(=O)O[C@H]2C[C@H]3CC[C@@H](C2)N3c2nccs2)cc2ccccc21 [Compound 58, endo-8-(2-thiazolyl)-8-azabicyclo[3.2.1]oct-3-yl 1-isopropyl-2-oxo-1,2-dihydro-3-quinolinecarboxylate hydrochloride, reference compound] |  |  |  |  |  | 1140
COCCOCCN1[C@@H]2CC[C@H]1C[C@@H](OC(=O)c1cc3ccccc3n(C(C)C)c1=O)C2 [Compound 59, Endo-8-(2-(2-methoxyethoxy)ethyl)-8-azabicyclo[3.2.1]oct-3-yl 1-isopropyl-2-oxo-1,2-dihydro-3-quinolinecarboxylate hydrochloride] | 73.7 |  |  |  |  | 
